US20040167192A1, “Methods of treating conditions associated with an Edg-7 receptor” (priority 2003, published 2004)

Experiments:
Edg-4 = biological target: T1, Edg-4 (Homo sapiens, UniProt Q9HBW0); experiment: Intracellular calcium mobilization (FLIPR) in HTC cells expressing Edg-4; type: cell-based
T1 construct: expressed in transfected cells; host or cells: HTC rat hepatoma cells

Edg-1 = biological target: T2, Edg-1 (Homo sapiens, UniProt P21453); experiment: Intracellular calcium mobilization (FLIPR) in HTC cells expressing Edg-1; type: cell-based
T2 construct: expressed in transfected cells; host or cells: HTC rat hepatoma cells
T2 sequence (P21453 whole entry): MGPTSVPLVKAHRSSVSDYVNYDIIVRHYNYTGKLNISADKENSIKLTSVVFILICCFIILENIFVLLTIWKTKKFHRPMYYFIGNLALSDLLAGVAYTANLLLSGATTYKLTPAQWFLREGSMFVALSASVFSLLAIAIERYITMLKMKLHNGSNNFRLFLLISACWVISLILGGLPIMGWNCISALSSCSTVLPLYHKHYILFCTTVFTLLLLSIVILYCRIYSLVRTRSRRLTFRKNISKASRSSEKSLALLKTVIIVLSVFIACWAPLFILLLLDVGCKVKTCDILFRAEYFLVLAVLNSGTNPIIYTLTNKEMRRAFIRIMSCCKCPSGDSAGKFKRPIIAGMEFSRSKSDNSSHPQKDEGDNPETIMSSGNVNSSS

Edg-8 = biological target: T3, Edg-8 (Homo sapiens, UniProt Q9H228); experiment: Intracellular calcium mobilization (FLIPR) in HTC cells expressing Edg-8; type: cell-based
T3 construct: expressed in transfected cells; host or cells: HTC rat hepatoma cells
T3 sequence (Q9H228 whole entry): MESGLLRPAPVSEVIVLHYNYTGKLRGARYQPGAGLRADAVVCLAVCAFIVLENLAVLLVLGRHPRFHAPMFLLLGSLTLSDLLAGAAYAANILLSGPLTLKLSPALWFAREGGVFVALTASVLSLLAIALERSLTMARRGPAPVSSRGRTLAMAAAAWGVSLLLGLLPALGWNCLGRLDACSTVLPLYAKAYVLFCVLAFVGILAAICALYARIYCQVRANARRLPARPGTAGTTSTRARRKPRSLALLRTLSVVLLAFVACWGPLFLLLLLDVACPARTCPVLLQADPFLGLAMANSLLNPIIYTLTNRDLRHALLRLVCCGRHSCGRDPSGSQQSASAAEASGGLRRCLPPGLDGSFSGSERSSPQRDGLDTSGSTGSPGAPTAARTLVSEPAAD

human Edg 7 receptors = biological target: T4, human Edg 7 receptors (Homo sapiens, UniProt Q9UBY5); experiment: Intracellular calcium mobilization (FLIPR) in HTC cells expressing Edg-7; type: cell-based
T4 construct: expressed in transfected cells; host or cells: HTC rat hepatoma cells
T4 sequence (Q9UBY5 1-353): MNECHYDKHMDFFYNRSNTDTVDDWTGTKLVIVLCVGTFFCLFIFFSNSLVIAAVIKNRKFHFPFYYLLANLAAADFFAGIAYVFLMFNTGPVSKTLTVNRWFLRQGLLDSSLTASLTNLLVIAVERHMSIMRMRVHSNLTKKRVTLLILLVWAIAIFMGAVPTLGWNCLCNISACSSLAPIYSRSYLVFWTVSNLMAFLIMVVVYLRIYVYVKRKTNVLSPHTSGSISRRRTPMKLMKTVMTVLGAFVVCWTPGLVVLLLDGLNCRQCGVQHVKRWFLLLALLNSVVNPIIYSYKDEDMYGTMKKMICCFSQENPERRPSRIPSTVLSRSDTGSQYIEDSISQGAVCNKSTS
Procedure: (§1) The compounds were tested in HTC cells expressing human Edg 7 receptors. […] The compounds are tested in this recombinant system first, and subsequently tested in cell lines expressing Edg-7 (in addition to other Edg receptors).
as §1, with “receptors). […] The calcium mobilization assays were conducted as described in Section 6.6 (Example 6).” for “receptors).”
LPA receptors such as Edg-7, couple to calcium effector pathways, and result in increases in intracellular calcium following receptor activation (An, 1998, J. Cell. Biochem Supp. 30-31:147-157). This biological response lends itself to a very efficient, high-throughput screen using a Fluorescence Imaging Plate Reader (FLIPR; Molecular Devices, Sunnyvale, Calif.). The FLIPR system is a real-time, cell-based assay system with continuous fluorescence detection using a cooled CCD camera. The FLIPR system was used to developing an Edg-7 receptor screen. Rat hepatoma cells stably expressing Edg-7 receptor were plated on 384-well plates and loaded with a calcium dye loading kit (Molecular Devices, Sunnyvale, Calif.) for 1 hour at room temperature. Cells were then placed on the FLIPR^384 (Molecular Devices, Sunnyvale, Calif.) and excited by an argon laser at 488 nm. The data for the entire 384-well plate was updated every second. An integrated robotic pipettor allowed for simultaneous compound addition into each individual well in the plate.

Edg-5 = biological target: T5, Edg-5 (Homo sapiens, UniProt O95136); experiment: Intracellular calcium mobilization (FLIPR) in HTC cells expressing Edg-5; type: cell-based
T5 construct: expressed in transfected cells; host or cells: HTC rat hepatoma cells
T5 sequence (O95136 whole entry): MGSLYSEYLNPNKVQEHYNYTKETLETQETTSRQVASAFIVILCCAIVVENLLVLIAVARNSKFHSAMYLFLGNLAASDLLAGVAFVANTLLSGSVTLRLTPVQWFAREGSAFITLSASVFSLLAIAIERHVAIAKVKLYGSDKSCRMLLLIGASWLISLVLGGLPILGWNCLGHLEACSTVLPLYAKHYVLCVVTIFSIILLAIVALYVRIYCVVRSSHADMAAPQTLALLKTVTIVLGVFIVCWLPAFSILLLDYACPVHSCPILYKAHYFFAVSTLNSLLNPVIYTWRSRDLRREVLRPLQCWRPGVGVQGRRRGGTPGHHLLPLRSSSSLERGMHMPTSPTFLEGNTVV

Edg-2 = biological target: T6, Edg-2 (Homo sapiens, UniProt Q92633); experiment: Intracellular calcium mobilization (FLIPR) in HTC cells expressing Edg-2; type: cell-based
T6 construct: expressed in transfected cells; host or cells: HTC rat hepatoma cells
T6 sequence (Q92633 whole entry): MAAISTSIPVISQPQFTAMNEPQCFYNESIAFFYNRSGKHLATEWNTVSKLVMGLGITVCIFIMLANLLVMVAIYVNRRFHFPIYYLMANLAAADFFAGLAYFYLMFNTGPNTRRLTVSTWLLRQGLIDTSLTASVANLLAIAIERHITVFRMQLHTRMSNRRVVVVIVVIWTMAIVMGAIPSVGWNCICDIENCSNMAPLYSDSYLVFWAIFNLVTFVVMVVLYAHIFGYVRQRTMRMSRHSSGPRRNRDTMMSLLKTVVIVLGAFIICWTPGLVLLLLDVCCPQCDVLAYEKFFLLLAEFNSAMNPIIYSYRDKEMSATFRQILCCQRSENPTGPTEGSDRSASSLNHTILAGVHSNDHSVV

Edg-3 = biological target: T7, Edg-3 (Homo sapiens, UniProt Q99500); experiment: Intracellular calcium mobilization (FLIPR) in HTC cells expressing Edg-3; type: cell-based
T7 construct: expressed in transfected cells; host or cells: HTC rat hepatoma cells
T7 sequence (Q99500 whole entry): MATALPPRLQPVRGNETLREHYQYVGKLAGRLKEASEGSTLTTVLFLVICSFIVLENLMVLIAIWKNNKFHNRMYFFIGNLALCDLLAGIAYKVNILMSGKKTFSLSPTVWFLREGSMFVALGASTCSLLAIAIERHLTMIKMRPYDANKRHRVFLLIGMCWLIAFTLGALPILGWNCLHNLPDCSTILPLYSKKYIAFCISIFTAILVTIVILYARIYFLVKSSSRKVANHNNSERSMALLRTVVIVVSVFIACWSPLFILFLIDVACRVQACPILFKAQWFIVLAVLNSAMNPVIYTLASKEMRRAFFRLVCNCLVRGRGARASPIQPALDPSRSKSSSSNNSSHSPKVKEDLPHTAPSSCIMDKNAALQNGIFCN

Edg-6 = biological target: T8, Edg-6 (Homo sapiens, UniProt O95977); experiment: Intracellular calcium mobilization (FLIPR) in HTC cells expressing Edg-6; type: cell-based
T8 construct: expressed in transfected cells; host or cells: HTC rat hepatoma cells
T8 sequence (O95977 1-384): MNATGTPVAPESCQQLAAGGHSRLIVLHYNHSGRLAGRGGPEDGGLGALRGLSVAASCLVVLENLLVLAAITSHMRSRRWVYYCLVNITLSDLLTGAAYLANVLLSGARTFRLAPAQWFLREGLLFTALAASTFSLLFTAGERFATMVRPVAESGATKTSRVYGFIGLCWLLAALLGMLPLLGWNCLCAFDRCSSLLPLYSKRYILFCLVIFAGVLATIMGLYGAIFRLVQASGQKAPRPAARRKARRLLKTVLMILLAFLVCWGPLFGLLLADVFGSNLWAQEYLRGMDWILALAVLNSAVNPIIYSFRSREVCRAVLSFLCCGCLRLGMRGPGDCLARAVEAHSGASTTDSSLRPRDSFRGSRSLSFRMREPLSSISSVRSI

untransfected HTC cells = experiment: Intracellular calcium mobilization (FLIPR) in untransfected HTC cells; type: cell-based, rat; conditions: concentrations as high as 25 μM
[1] = concentrations as high as 20 μM
[2] = HTC cells expressing human Edg 7 receptors
[3] = concentrations as high as 25 μM

T1 sequence (Q9HBW0 whole entry): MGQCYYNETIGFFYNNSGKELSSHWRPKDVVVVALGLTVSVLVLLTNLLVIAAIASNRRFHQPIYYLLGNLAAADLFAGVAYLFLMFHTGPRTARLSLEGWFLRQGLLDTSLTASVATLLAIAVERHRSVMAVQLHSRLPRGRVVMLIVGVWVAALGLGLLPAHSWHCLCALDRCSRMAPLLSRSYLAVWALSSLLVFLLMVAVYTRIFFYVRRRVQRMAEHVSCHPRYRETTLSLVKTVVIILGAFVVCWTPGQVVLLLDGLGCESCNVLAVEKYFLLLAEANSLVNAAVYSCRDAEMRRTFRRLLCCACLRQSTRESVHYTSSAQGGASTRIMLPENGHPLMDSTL

Row | SMILES | inhibition of LPA-stimulated calcium increases (Edg-4; [1]) | inhibition of S1P-stimulated calcium increases (Edg-1; [1]) | inhibition of S1P-stimulated calcium increases (Edg-8; [1]) | inhibition of Edg-7 stimulated LPA responses (human Edg 7 receptors; [2]) | selectivity for Edg 7 (human Edg 7 receptors; tested on HTC cells expressing Edg-7) | inhibition of S1P-stimulated calcium increases (Edg-5; [1]) | inhibition of LPA-stimulated calcium increases (Edg-2; [1]) | inhibition of S1P-stimulated calcium increases (Edg-3; [1]) | inhibition of S1P-stimulated calcium increases (Edg-6; [1]) | stimulation of calcium increases (Edg-4; [3]) | melting point | stimulation of calcium increases (Edg-1; [3]) | stimulation of calcium increases (untransfected HTC cells) | stimulation of calcium increases (Edg-8; [3]) | activation of the Edg-7 receptor (human Edg 7 receptors; [2]) | stimulation of calcium increases (Edg-5; [3]) | stimulation of calcium increases (Edg-2; [3]) | stimulation of calcium increases (Edg-3; [3]) | stimulation of calcium increases (Edg-6; [3])
1 | Cc1ccc(S(=O)(=O)N=C2NC(=O)/C(=C3/C(=O)Nc4ccccc43)S2)cc1 [Compound 105, 4-Methyl-N-[4-oxo-5-(2-oxo1,2-dihydroindol-3-ylidene)thiazolidin-2-ylidene]-benzenesulfonamide] | did not inhibit | did not inhibit | did not inhibit | demonstrate inhibition | exhibited selectivity | did not inhibit | did not inhibit | did not inhibit | did not inhibit | – | – | – | – | – | – | – | – | – | –
2 | O=C(O)COc1ccc(Br)cc1/C=C1\S/C(=N\c2ccc(Cl)cc2)NC1=O [Compound 107, 4-Bromo-2-[2-(4-chlorophenylamino)-4-oxothiazolidin-5-ylidenemethyl]phenoxyacetic acid] | – | – | – | demonstrate inhibition | – | – | – | – | – | – | – | – | – | – | – | – | – | – | –
3 | CCCCCC(CCCCC)=N/N=C1\NC(=O)C(CC(=O)O)S1 (centres unmarked) [Compound 127, 4-Oxo-2-[(1-pentylhexylidene)hydrazono]thiazolidin-5-ylacetic acid] | – | – | – | – | – | – | – | – | – | did not stimulate calcium increases | 134 to 135 °C | did not stimulate calcium increases | did not stimulate calcium increases | did not stimulate calcium increases | specifically activate | did not stimulate calcium increases | did not stimulate calcium increases | did not stimulate calcium increases | did not stimulate calcium increases
